Values belong to the molecule of their own block, whether it stands above or below them. Calls of active or inactive are those of the source. No cut-off for these calls is given here.
Key:
Homo sapiens [1] = species on record: Homo sapiens; experiment: Immunomodulatory activity in human PMNC assessed as induction of CD69 expression at 375 uM within 10 mins by FACS analysis; format: functional
[2] = Metabolic stability in human NK cells assessed as formation of 4-hydroxydodecanoic acid at 375 uM after 3 hrs by RP-HPLC analysis; format: ADME, cell-based
NK [3] = experiment: Immunomodulatory activity in human NK cells assessed as induction of GZMB gene expression at 375 uM after 4 hrs by RT-PCR analysis; format: functional, cell-based
[4] = Immunomodulatory activity in human PMNC assessed as induction of CD69 expression at 100 uM after 24 hrs by FACS analysis; format: functional
[5] = Immunomodulatory activity in human PMNC assessed as induction of CD69 expression at 200 uM after 24 hrs by FACS analysis; format: functional
[6] = Immunomodulatory activity in human PMNC assessed as induction of CD69 expression at 375 uM after 24 hrs by FACS analysis; format: functional
[7] = Immunomodulatory activity in human PMNC assessed as induction of CD69 expression at 20 ng/ml after 24 hrs by FACS analysis; format: functional
Homo sapiens [8] = species on record: Homo sapiens; experiment: Immunomodulatory activity in human PMNC assessed as induction of CD69 expression after 24 hrs by FITC-conjugated flow cytometry; format: functional
[9] = Immunomodulatory activity in human PMNC assessed as induction of GraB expression at 375 uM after 24 hrs by FITC-conjugated flow cytometry relative to control; format: functional
[10] = Immunomodulatory activity in human PMNC assessed as induction of FasL expression at 375 uM after 24 hrs by FITC-conjugated flow cytometry relative to control; format: functional
NK [11] = experiment: Immunomodulatory activity in human NK cells assessed as induction of CD69 gene expression at 375 uM after 4 hrs by RT-PCR analysis; format: functional, cell-based
NK [12] = experiment: Immunomodulatory activity in human NK cells assessed as induction of IL2 gene expression at 375 uM after 4 hrs by RT-PCR analysis; format: functional, cell-based
NK [13] = experiment: Immunomodulatory activity in human NK cells assessed as induction of TNF gene expression at 375 uM after 4 hrs by RT-PCR analysis; format: functional, cell-based
NK [14] = experiment: Immunomodulatory activity in human NK cells assessed as induction of IFNG gene expression at 375 uM after 4 hrs by RT-PCR analysis; format: functional, cell-based
NK [15] = experiment: Immunomodulatory activity in human NK cells assessed as induction of FASLG gene expression at 375 uM after 4 hrs by RT-PCR analysis; format: functional, cell-based
[16] = Metabolic stability in human NK cells assessed as conversion to 4-hydroxydodecanoic acid at 375 uM after 45 mins by RP-HPLC analysis; format: ADME, cell-based; details: 0.75 h
HepG2 = experiment: Immunomodulatory activity in human HepG2 cells assessed as induction of innate immunity-mediated cytotoxicity at 375 uM after 24 hrs by fluorescence microscopy; format: functional, cell-based
[17] = Cytotoxicity human PMNC up to 375 uM after 48 hrs by WST assay
[18] = Cellular uptake in human NK cells at 500 uM after 20 mins by GC analysis; format: ADME, cell-based
PBMC [19] = experiment: Cellular uptake in human PBMC residual solution after 10 mins by GC analysis; format: ADME, cell-based
PBMC [20] = experiment: Cellular uptake in human PBMC residual solution after 20 mins by GC analysis; format: ADME, cell-based
PBMC [21] = experiment: Cellular uptake in human PBMC residual solution after 30 mins by GC analysis; format: ADME, cell-based; details: 0.5 h
PBMC [22] = experiment: Cellular uptake in human PBMC residual solution after 1 hr by GC analysis; format: ADME, cell-based
PBMC [23] = experiment: Cellular uptake in human PBMC residual solution after 2 hrs by GC analysis; format: ADME, cell-based
PBMC [24] = experiment: Cellular uptake in human PBMC residual solution after 3 hrs by GC analysis; format: ADME, cell-based
PBMC [25] = experiment: Cellular uptake in human PBMC pellet solution after 10 mins by GC analysis; format: ADME, cell-based
PBMC [26] = experiment: Cellular uptake in human PBMC pellet solution after 20 mins by GC analysis; format: ADME, cell-based
PBMC [27] = experiment: Cellular uptake in human PBMC pellet solution after 30 mins by GC analysis; format: ADME, cell-based; details: 0.5 h
PBMC [28] = experiment: Cellular uptake in human PBMC pellet solution after 1 hr by GC analysis; format: ADME, cell-based
PBMC [29] = experiment: Cellular uptake in human PBMC pellet solution after 2 hrs by GC analysis; format: ADME, cell-based
PBMC [30] = experiment: Cellular uptake in human PBMC pellet solution after 3 hrs by GC analysis; format: ADME, cell-based
PBMC [31] = experiment: Cellular uptake in human PBMC after 10 mins by GC analysis; format: ADME, cell-based
PBMC [32] = experiment: Cellular uptake in human PBMC after 20 mins by GC analysis; format: ADME, cell-based
PBMC [33] = experiment: Cellular uptake in human PBMC after 30 mins by GC analysis; format: ADME, cell-based; details: 0.5 h
PBMC [34] = experiment: Cellular uptake in human PBMC after 1 hr by GC analysis; format: ADME, cell-based
PBMC [35] = experiment: Cellular uptake in human PBMC after 2 hrs by GC analysis; format: ADME, cell-based
PBMC [36] = experiment: Cellular uptake in human PBMC after 3 hrs by GC analysis; format: ADME, cell-based
PBMC [37] = experiment: Cellular uptake in human PBMC nucleus residual solution after 10 mins by GC analysis; format: ADME, cell-based
PBMC [38] = experiment: Cellular uptake in human PBMC nucleus residual solution after 20 mins by GC analysis; format: ADME, cell-based
PBMC [39] = experiment: Cellular uptake in human PBMC nucleus residual solution after 30 mins by GC analysis; format: ADME, cell-based; details: 0.5 h
PBMC [40] = experiment: Cellular uptake in human PBMC nucleus residual solution after 1 hr by GC analysis; format: ADME, cell-based
PBMC [41] = experiment: Cellular uptake in human PBMC nucleus residual solution after 2 hrs by GC analysis; format: ADME, cell-based
PBMC [42] = experiment: Cellular uptake in human PBMC nucleus after 10 mins by GC analysis; format: ADME, cell-based
PBMC [43] = experiment: Cellular uptake in human PBMC nucleus after 20 mins by GC analysis; format: ADME, cell-based
PBMC [44] = experiment: Cellular uptake in human PBMC nucleus after 30 mins by GC analysis; format: ADME, cell-based; details: 0.5 h
PBMC [45] = experiment: Cellular uptake in human PBMC nucleus after 1 hr by GC analysis; format: ADME, cell-based
PBMC [46] = experiment: Cellular uptake in human PBMC nucleus after 2 hrs by GC analysis; format: ADME, cell-based
PBMC [47] = experiment: Cellular uptake in human PBMC nucleus assessed per mg of protein after 10 mins by GC analysis; format: ADME, cell-based
PBMC [48] = experiment: Cellular uptake in human PBMC nucleus assessed per mg of protein after 20 mins by GC analysis; format: ADME, cell-based
PBMC [49] = experiment: Cellular uptake in human PBMC nucleus assessed per mg of protein after 30 mins by GC analysis; format: ADME, cell-based; details: 0.5 h
PBMC [50] = experiment: Cellular uptake in human PBMC nucleus assessed per mg of protein after 1 hr by GC analysis; format: ADME, cell-based
PBMC [51] = experiment: Cellular uptake in human PBMC nucleus assessed per mg of protein after 2 hrs by GC analysis; format: ADME, cell-based

SMILES: CCCCCCCC[C@@H](O)CCC(=O)O
Activity (Homo sapiens [1]): Active

Stability [2]: Unstable
SMILES: CCCCCCCCC(O)CCC(=O)O (centres undefined)
Activity (Homo sapiens [1]): Active

SMILES: CCCCCCCC[C@H](O)CCC(=O)O
Activity (Homo sapiens [1]): Active

Activity [16]: 29%
Drug uptake [18]: 18.62 ng
Drug uptake (PBMC [19]): 0.02 µg
Drug uptake (PBMC [20]): 0.015 µg
Drug uptake (PBMC [21]): 0.019 µg
Drug uptake (PBMC [22]): 0.01 µg
Drug uptake (PBMC [23]): 0.009 µg
Drug uptake (PBMC [24]): 0 µg
Drug uptake (PBMC [25]): 0 µg
Drug uptake (PBMC [26]): 0.007 µg
Drug uptake (PBMC [27]): 0.008 µg
Drug uptake (PBMC [28]): 0.007 µg
Drug uptake (PBMC [29]): 0 µg
Drug uptake (PBMC [30]): 0 µg
Drug uptake (PBMC [31]): 0.02 µg
Drug uptake (PBMC [32]): 0.022 µg
Drug uptake (PBMC [33]): 0.027 µg
Drug uptake (PBMC [34]): 0.017 µg
Drug uptake (PBMC [35]): 0.009 µg
Drug uptake (PBMC [36]): 0 µg
Drug uptake (PBMC [37]): 8.44 ng
Drug uptake (PBMC [38]): 9.95 ng
Drug uptake (PBMC [39]): 9.95 ng
Drug uptake (PBMC [40]): 8.4 ng
Drug uptake (PBMC [41]): 0 ng
Drug uptake (PBMC [42]): 0.791 mg/mL
Drug uptake (PBMC [43]): 0.774 mg/mL
Drug uptake (PBMC [44]): 0.618 mg/mL
Drug uptake (PBMC [45]): 0.9 mg/mL
Drug uptake (PBMC [46]): 0.658 mg/mL
Drug uptake (PBMC [47]): 0.011 ng
Drug uptake (PBMC [48]): 0.013 ng
Drug uptake (PBMC [49]): 0.016 ng
Drug uptake (PBMC [50]): 0.001 ng
Drug uptake (PBMC [51]): 0 ng
SMILES: CCCCCCCC[C@H]1CCC(=O)O1
Activity (NK [3]): Active
Activity [4]: 10.51%
Activity [5]: 13.58%
Activity [6]: 19.37%
Activity [7]: 33.65%
Activity (Homo sapiens [8]): Dose-dependent effect
fold change (FC) [9]: 1.5
fold change (FC) [10]: 2.5
Activity (NK [11]): Active
Activity (NK [12]): Active
Activity (NK [13]): Active
Activity (NK [14]): Active
Activity (NK [15]): Active
Activity (HepG2): Active
Activity [17]: Non-toxic
